{
  "source": "ChEMBL document CHEMBL3407433",
  "about": "“A high-throughput screen reveals new small-molecule activators and inhibitors of pantothenate kinases” (J Med Chem, 2015)",
  "key": {"[1]": {"biological_target": "T1, Pantothenate kinase 1 (Homo sapiens, UniProt Q8TE04)", "T1 sequence (Q8TE04 whole entry)": "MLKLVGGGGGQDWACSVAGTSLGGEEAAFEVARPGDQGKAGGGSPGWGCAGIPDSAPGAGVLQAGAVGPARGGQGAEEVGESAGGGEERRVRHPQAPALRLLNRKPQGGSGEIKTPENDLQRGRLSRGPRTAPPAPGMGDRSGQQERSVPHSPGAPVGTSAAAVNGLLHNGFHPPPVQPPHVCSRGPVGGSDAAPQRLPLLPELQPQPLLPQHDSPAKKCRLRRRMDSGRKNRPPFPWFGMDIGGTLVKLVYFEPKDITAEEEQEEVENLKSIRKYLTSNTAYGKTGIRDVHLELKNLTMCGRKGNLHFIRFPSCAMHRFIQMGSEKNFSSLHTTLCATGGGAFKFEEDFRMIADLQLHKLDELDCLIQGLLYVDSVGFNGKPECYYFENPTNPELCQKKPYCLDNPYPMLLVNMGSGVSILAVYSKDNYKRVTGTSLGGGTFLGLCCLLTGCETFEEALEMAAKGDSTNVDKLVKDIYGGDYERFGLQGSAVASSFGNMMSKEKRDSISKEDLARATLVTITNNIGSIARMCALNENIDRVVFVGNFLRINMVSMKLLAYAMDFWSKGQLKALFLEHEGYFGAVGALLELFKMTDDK", "experiment": "Inhibition of Pank1beta (unknown origin) by Kinase Glo HTS assay"}, "[2]": {"biological_target": "T2, Pantothenate kinase 3 (Homo sapiens, UniProt Q9H999)", "experiment": "Inhibition of Pank3 (unknown origin) by Kinase Glo HTS assay"}, "[3]": {"biological_target": "T2, Pantothenate kinase 3", "experiment": "Activation of Pank3 (unknown origin) by Kinase Glo HTS assay"}, "[4]": {"biological_target": "T1, Pantothenate kinase 1", "experiment": "Inhibition of purified human Pank1beta using d-[1-14C]pantothenate as substrate after 10 mins by radiochemical enzyme assay"}, "[5]": {"biological_target": "T3, Pantothenate kinase 2, mitochondrial (Homo sapiens, UniProt Q9BZ23)", "T3 sequence (Q9BZ23 whole entry)": "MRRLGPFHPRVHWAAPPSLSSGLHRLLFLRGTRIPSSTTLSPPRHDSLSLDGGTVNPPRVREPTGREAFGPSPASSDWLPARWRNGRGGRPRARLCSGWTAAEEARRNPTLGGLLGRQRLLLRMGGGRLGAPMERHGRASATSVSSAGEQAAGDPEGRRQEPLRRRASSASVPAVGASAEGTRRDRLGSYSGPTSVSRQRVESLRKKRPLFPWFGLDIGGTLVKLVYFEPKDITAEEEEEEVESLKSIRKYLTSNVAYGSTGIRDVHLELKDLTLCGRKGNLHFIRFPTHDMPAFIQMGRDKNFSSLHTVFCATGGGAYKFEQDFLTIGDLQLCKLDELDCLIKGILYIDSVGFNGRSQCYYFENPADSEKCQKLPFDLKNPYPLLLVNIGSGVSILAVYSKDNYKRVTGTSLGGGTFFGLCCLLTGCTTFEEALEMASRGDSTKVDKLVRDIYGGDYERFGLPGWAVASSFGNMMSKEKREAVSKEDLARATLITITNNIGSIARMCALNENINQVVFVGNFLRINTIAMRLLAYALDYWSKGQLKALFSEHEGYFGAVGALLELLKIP", "experiment": "Inhibition of purified human Pank2 using d-[1-14C]pantothenate as substrate after 10 mins by radiochemical enzyme assay"}, "[6]": {"biological_target": "T2, Pantothenate kinase 3", "experiment": "Inhibition of purified human Pank3 using d-[1-14C]pantothenate as substrate after 10 mins by radiochemical enzyme assay"}, "[7]": {"biological_target": "T2, Pantothenate kinase 3", "description": "Binding affinity to purified human Pank3 assessed as thermal stabilization by thermal shift assay in presence of 2 mM ATP/Mg2+"}},
  "data": [
    {"compound": "COc1cccc(CNC(=O)CCc2c(C)nc3c4cccnc4nn3c2C)c1", "values": [
      {"measurement": "IC50", "setting": "[1]", "value": "> 56000", "unit": "nM"},
      {"measurement": "IC50", "setting": "[2]", "value": "> 56000", "unit": "nM"}
    ]},
    {"compound": "Cc1nc2c3cccnc3nn2c(C)c1CCC(=O)Nc1ccccc1F", "values": [
      {"measurement": "IC50", "setting": "[1]", "value": 550, "unit": "nM"},
      {"measurement": "IC50", "setting": "[2]", "value": 13600, "unit": "nM"}
    ]},
    {"compound": "Cc1nc2c3cccnc3nn2c(C)c1CCC(=O)NC1CCCCC1", "values": [
      {"measurement": "IC50", "setting": "[1]", "value": 13600, "unit": "nM"},
      {"measurement": "IC50", "setting": "[2]", "value": "> 56000", "unit": "nM"}
    ]},
    {"compound": "Cc1ccc(NC(=O)CCc2c(C)nc3c4cccnc4nn3c2C)cc1", "values": [
      {"measurement": "IC50", "setting": "[1]", "value": 11200, "unit": "nM"},
      {"measurement": "IC50", "setting": "[2]", "value": 25600, "unit": "nM"}
    ]},
    {"compound": "CC(C(=O)Nc1cc(Cl)ccc1Cl)N1CCC(C(=O)NCc2ccccc2)CC1", "note": "(stereo not drawn)", "values": [
      {"measurement": "EC50", "setting": "[3]", "value": 1720, "unit": "nM"}
    ]},
    {"compound": "Cc1nc2c3cccnc3nn2c(C)c1CCC(=O)Nc1cccc(F)c1", "values": [
      {"measurement": "IC50", "setting": "[1]", "value": 240, "unit": "nM"},
      {"measurement": "IC50", "setting": "[2]", "value": 620, "unit": "nM"}
    ]},
    {"compound": "Cc1nc2c3cccnc3nn2c(C)c1CCC(=O)NCc1cccc(F)c1", "values": [
      {"measurement": "IC50", "setting": "[1]", "value": 15800, "unit": "nM"},
      {"measurement": "IC50", "setting": "[2]", "value": 10000, "unit": "nM"}
    ]},
    {"compound": "Cc1nc2c3cccnc3nn2c(C)c1CCC(=O)NCC1CCCCC1", "values": [
      {"measurement": "IC50", "setting": "[1]", "value": 1220, "unit": "nM"},
      {"measurement": "IC50", "setting": "[2]", "value": 40900, "unit": "nM"}
    ]},
    {"compound": "Cc1cccc(NC(=O)CCc2c(C)nc3c4cccnc4nn3c2C)c1", "values": [
      {"measurement": "IC50", "setting": "[1]", "value": 1570, "unit": "nM"},
      {"measurement": "IC50", "setting": "[2]", "value": 3840, "unit": "nM"}
    ]},
    {"compound": "COc1cccc(NC(=O)CCc2c(C)nc3c4cccnc4nn3c2C)c1", "values": [
      {"measurement": "IC50", "setting": "[1]", "value": 280, "unit": "nM"},
      {"measurement": "IC50", "setting": "[2]", "value": 1640, "unit": "nM"}
    ]},
    {"compound": "CC(C)CCNC(=O)c1csc(-c2cccc(Cl)c2Cl)n1", "values": [
      {"measurement": "IC50", "setting": "[2]", "value": 2450, "unit": "nM"}
    ]},
    {"compound": "Cc1nc2c3cccnc3nn2c(C)c1CCC(=O)Nc1cccc(C(F)(F)F)c1", "values": [
      {"measurement": "IC50", "setting": "[1]", "value": 190, "unit": "nM"},
      {"measurement": "IC50", "setting": "[2]", "value": 830, "unit": "nM"}
    ]},
    {"compound": "COC(=O)c1cccc(NC(=O)CCc2c(C)nc3c4cccnc4nn3c2C)c1", "values": [
      {"measurement": "IC50", "setting": "[1]", "value": "> 56000", "unit": "nM"},
      {"measurement": "IC50", "setting": "[2]", "value": "> 56000", "unit": "nM"}
    ]},
    {"compound": "CC(=O)Nc1ccc(NC(=O)CCc2c(C)nc3c4cccnc4nn3c2C)cc1", "values": [
      {"measurement": "IC50", "setting": "[1]", "value": 640, "unit": "nM"},
      {"measurement": "IC50", "setting": "[2]", "value": 350, "unit": "nM"}
    ]},
    {"compound": "Cc1nc2c3cccnc3nn2c(C)c1CCC(=O)N(C)c1ccccc1", "values": [
      {"measurement": "IC50", "setting": "[1]", "value": "> 56000", "unit": "nM"},
      {"measurement": "IC50", "setting": "[2]", "value": "> 56000", "unit": "nM"}
    ]},
    {"compound": "CCN(CC)c1ccc(CNc2nn[nH]n2)cc1", "values": [
      {"measurement": "EC50", "setting": "[3]", "value": 3430, "unit": "nM"}
    ]},
    {"compound": "CC(C)c1ccc(NC(=O)CCc2nc(O)c3c4c(sc3n2)CCC4)cc1", "values": [
      {"measurement": "IC50", "setting": "[2]", "value": 120, "unit": "nM"}
    ]},
    {"compound": "O=C(Cc1ccc(F)cc1)N1CCN(c2nc3c(Cl)cccc3s2)CC1", "values": [
      {"measurement": "EC50", "setting": "[3]", "value": 1510, "unit": "nM"}
    ]},
    {"compound": "Cc1nc2c3cccnc3nn2c(C)c1CCC(=O)Nc1ccccc1", "values": [
      {"measurement": "IC50", "setting": "[1]", "value": 850, "unit": "nM"},
      {"measurement": "IC50", "setting": "[2]", "value": 24500, "unit": "nM"}
    ]},
    {"compound": "COc1ccc(NC(=O)CCc2c(C)nc3c4cccnc4nn3c2C)cc1", "values": [
      {"measurement": "IC50", "setting": "[1]", "value": 6690, "unit": "nM"},
      {"measurement": "IC50", "setting": "[2]", "value": 11300, "unit": "nM"}
    ]},
    {"compound": "COc1ccc(CNC(=O)CCc2c(C)nc3c4cccnc4nn3c2C)cc1", "values": [
      {"measurement": "IC50", "setting": "[1]", "value": 14700, "unit": "nM"},
      {"measurement": "IC50", "setting": "[2]", "value": 25800, "unit": "nM"}
    ]},
    {"compound": "CCS(=O)(=O)Nc1ccc(C(=O)NC2CC3CCC2C3)cc1", "note": "(stereo not drawn)", "values": [
      {"measurement": "IC50", "setting": "[2]", "value": 180, "unit": "nM"}
    ]},
    {"compound": "COc1ccccc1NC(=O)CCc1c(C)nc2c3cccnc3nn2c1C", "values": [
      {"measurement": "IC50", "setting": "[1]", "value": "> 56000", "unit": "nM"},
      {"measurement": "IC50", "setting": "[2]", "value": "> 56000", "unit": "nM"}
    ]},
    {"compound": "Cc1ccc(NC(=O)N2CCN(c3ccccc3F)CC2)c(C)c1", "values": [
      {"measurement": "EC50", "setting": "[3]", "value": 2410, "unit": "nM"}
    ]},
    {"compound": "CSc1ccc(NC(=O)CCc2c(C)nc3c4cccnc4nn3c2C)cc1", "values": [
      {"measurement": "IC50", "setting": "[1]", "value": 3240, "unit": "nM"},
      {"measurement": "IC50", "setting": "[2]", "value": 10500, "unit": "nM"}
    ]},
    {"compound": "CSc1cccc(NC(=O)CCc2c(C)nc3c4cccnc4nn3c2C)c1", "values": [
      {"measurement": "IC50", "setting": "[4]", "value": 70, "unit": "nM"},
      {"measurement": "IC50", "setting": "[5]", "value": 92, "unit": "nM"},
      {"measurement": "IC50", "setting": "[6]", "value": 25, "unit": "nM"},
      {"measurement": "IC50", "setting": "[1]", "value": 140, "unit": "nM"},
      {"measurement": "IC50", "setting": "[2]", "value": 360, "unit": "nM"},
      {"measurement": "Kapp", "setting": "[7]", "value": 0.3, "unit": "µM"}
    ]},
    {"compound": "Cc1nc2c3cccnc3nn2c(C)c1CCC(=O)NCc1ccc(F)cc1", "values": [
      {"measurement": "IC50", "setting": "[1]", "value": "> 56000", "unit": "nM"},
      {"measurement": "IC50", "setting": "[2]", "value": "> 56000", "unit": "nM"}
    ]},
    {"compound": "Cc1nc2c3cccnc3nn2c(C)c1CCC(=O)Nc1ccc(F)cc1", "values": [
      {"measurement": "IC50", "setting": "[1]", "value": "> 56000", "unit": "nM"},
      {"measurement": "IC50", "setting": "[2]", "value": "> 56000", "unit": "nM"}
    ]}
  ]
}
